In patent US6191152A, “2-(1,2,4-triazole-1-yl)-1,3,4-thiadiazole derivatives having an effect on the C.N.S. and the heart” (EGIS Gyogyszergyar Rt., priority 1997, dated 2001):

Columns and labels:
[1] = test system: isolated rat thoracic aorta; assay: Vascular relaxing effect in isolated rat thoracic aorta contracted with 40 mM potassium chloride (diltiazem); parameters: species or system rat (male SPRD); settings: 40 mM KCl contracted strips, 37° C., read-out: IC50 (vascular relaxation in isolated rat thoracic aorta)
Experimental: Experiments were performed in thoracic aortas obtained from male SPRD rats weighing 250 to 300 g. Thoracic aortas excised from rats killed by decapitation and ensanguination were cleaned of fat and connective tissue, then were immediately placed in carbogenized TYRODE solution. The composition of the normal TYRODE solution was the following (in mM): NaCl 114.7, KCl 3.7, CaCl2 3.6, MgCl2 0.49, NaHCO3 19.9, NaH2 PO4 0.32, glucose 5.1.
Two mm wide and 20 to 25 mm long strips were cut from the aortas along a helical line at 45° angle. Aortic strips were mounted vertically between two cotton threads in 10 ml organ chambers, the lower threads were attached to the organ chambers and the upper threads were connected to isometric force transducers. The strips were incubated under 1 g resting tension at 37° C. for 120 minutes, then resting vascular tone was recorded. […]
When stable vascular tone developed, increasing doses of the test substance were added to the organ bath. The effects of each test substance were measured at least in 3 tissue preparations obtained from different animals. Decreases in vascular tension caused by the test substances were expressed as percentage changes and IC50 for each tissue preparation was determined by sigmoid (in few casses linear) curve fitting. […]

human beings = settings: Ceulemans et al.; cited from earlier work

SMILES | IC50 [1] [nM] | treatment of different forms of human anxiety (human beings)
COc1ccc([C@@H]2Sc3ccccc3N(CCN(C)C)C(=O)[C@@H]2OC(C)=O)cc1 [diltiazem, (2S)-cis-3-acetyloxy-5-(2-dimethylamino-ethyl)-2,3-dihydro-2-(4-methoxyphenyl)-1,5-benzothiazepine-4(5H)-one] | 150 | 
Cc1nc2sccn2c(=O)c1CCN1CCC(=C(c2ccc(F)cc2)c2ccc(F)cc2)CC1 [ritanserin, 6-[2-/4-bis(4-fluorophenyl)-methylene/ -1-piperidinylethyl]-7-methyl-5H-thiazolo/3,2-a/pyrimidine-5-one] |  | proved to be effective for the treatment of different forms of human anxiety
